Laboratory results reported in US20240207302A1, “ANTIVIRAL COMPOUNDS, METHODS FOR THE MANUFACTURING OF COMPOUNDS, ANTIVIRAL PHARMACEUTICAL COMPOSITION, USE OF THE COMPOUNDS AND METHOD FOR THE ORAL TREATMENT OF CORONAVIRUS INFECTION AND RELATED DISEASES THEREOF” (priority 2021, published 2024).
Read-outs that look alike come from different tables or passages of the source.

Assays:
[1] = test system: SARS-COV-2
[2] = Maximum tolerated dose (OECD 425) and tolerability; format: in vivo; conditions: mice
Experimental: The present assay was designed to investigate the safety and tolerability of MB-905. For the MTD assay (OECD 425), mice (3 animals of each sex/group) were divided into five experimental groups and the up and down procedure was applied to which 175 mg/kg was used as the first dose. […] Mortality, morbidity, body weight, food consumption, general and detailed clinical signs of toxicity were evaluated. At necropsy, vital (brain, heart, liver, spleen, kidneys and adrenal glands) and reproductive organs (ovaries, testicles and epididymis) were carefully removed, weighed and stored for further analysis (if necessary).

[3] = test system: murine hepatitis virus (MHV); format: in vivo, mice; conditions: DAC 60 mg/kg/day
[4] = Cytotoxicity assay (XTT) in Huh-7 cells; format: cell-based; conditions: human
Experimental: In parallel, cytotoxicity assays were performed. Monolayers of 1.5×10^4 cells in 96-well plates were treated for 3 days with various concentrations (semi-log dilutions from 1,000 to 10 μM) of the antiviral drugs. Then, 5 mg/mL 2,3-bis-(2-methoxy-4-nitro-5-sulfophenyl)-2H-tetrazolium-5-carboxanilide (XTT) in DMEM was added to the cells in the presence of 0.01% of N-methyl dibenzopyrazine methyl sulfate (PMS).

[5] = test system: SARS-COV-2 VoC gamma; format: in vivo, mice
[6] = test system: TNF-α and IL-6; experiment: TNF-α and IL-6 levels in supernatant of SARS-COV-2-infected human primary monocytes; format: cell-based; conditions: 24 h
Experimental: FIG. 5A, 5B and 5C. The compounds impair SARS-COV-2 RNA synthesis and SARS-COV-2-induced release of inflammatory mediators in human primary monocytes.
Human primary monocytes were obtained after 3 h of plastic adherence of peripheral blood mononuclear cells (PBMCs). PBMCs were isolated from healthy donors by density gradient centrifugation (Ficoll-Paque, GE Healthcare). PBMCs (2.0×10^6 cells) were plated onto 48-well plates (NalgeNunc) in RPMI-1640 without serum for 2 to 4 h. Non-adherent cells were removed, and the remaining monocytes were maintained in DMEM with 5% human serum (HS; Millipore) and penicillin/streptomycin. Monocytes were infected at MOI of 0.1. After 1 h inoculation period, cells were washed with phosphate saline buffer (PBS) to remove unbounded viruses and treated with 1 μM of the indicated compounds. After 24 h after infection, cell monolayers werc lysed total viral RNA was extracted, quantitative RT-PCR was performed, to detect the SARS-COV-2 and the housekeeping gene RNAse P.

[7] = Pharmacokinetics of MB-905 in three pre-formulations in mice; format: in vivo
From the text: FIG. 21. Pharmacokinetics of MB-905 in three pre-formulations in mice.
Thus, the pre-formulation was used for most subsequent in vivo studies.

[8] = test system: mouse bone marrow polychromatic erythrocytes; experiment: Micronucleus test in mouse bone marrow; format: in vivo; conditions: mice
Experimental: The ratio of polychromatic to normochromatic erythrocytes and the count of micronuclei were determined. This assay was conducted in compliance with the GLP principles.

[9] = Severe acute respiratory syndrome coronavirus 2, Calu-3, 72 h, Calu-3 (MOI 0.5 72 h), daily treatment
[10] = Severe acute respiratory syndrome coronavirus 2, Calu-3, 72 h, Calu-3 (MOI 0.5 72 h), single moment treatment
[11] = Severe acute respiratory syndrome coronavirus 2, Calu-3, Table 6, Calu-3, daily treatment
[12] = Severe acute respiratory syndrome coronavirus 2, Calu-3, Table 6, Calu-3, single treatment
[13] = 140 mg/kg/day alone and in combination with DTG
[14] = 140 mg/kg/day, vs untreated animals
[15] = mouse, plasma, po, 3 mg/kg, 5% Carboxymethylcellulose, 3 mg/kg (v.o.)
[16] = mouse, plasma, po, 3 mg/kg, 5% Tween80 + 95% PEG400, 3 mg/kg (p.o.)
[17] = mouse, plasma, po, 3 mg/kg, 5% ethanol, 30% Propylene Glycol, 45% PEG 400, 20% water, 3 mg/kg (v.o.)
[18] = mouse, plasma, po, 30 mg/kg, 5% Carboxymethylcellulose, 30 mg/kg (p.o.)
[19] = mouse, plasma, po, 30 mg/kg, 5% Tween80 + 95% PEG400, 30 mg/kg (p.o.)
[20] = mouse, plasma, po, 30 mg/kg, 5% ethanol, 30% Propylene Glycol, 45% PEG 400, 20% water, 30 mg/kg (p.o.)
[21] = mouse, plasma, po, 550 mg/kg, 5% ethanol, 30% Propylene Glycol, 45% PEG 400, 20% water, 550 mg/kg (p.o.)

For `c1coc(CNc2ncnc3[nH]cnc23)c1` [MB-905, kinetin], the EC50 [1, 9] was 30 nM, the EC90 [1, 9] was 2100 nM and the EC50 [1, 10] was 310 nM. The EC90 [1, 10] was 2800 nM, the EC50 [1, 11] was 30 nM and the EC90 [1, 11] was 2100 nM. For the same compound, the EC50 [1, 12] was 310 nM, the EC90 [1, 12] was 2800 nM and the “anti-coronavirus activity with simultaneous adenine” value ([1]; calu-3, adenine at 10 μM) was “prevented”. For the same compound, the “anti-coronavirus activity (SARS-COV-2 replication)” value ([1]; calu-3, treatment just after inoculation) was “concentration dependent inhibition”, the NOAEL at 7 days ([2]; both sexes, mouse, in vivo, oral, MTD study) was 550 mg/kg and the clinical signs ([2]; 1,150 mg/kg oral) was “piloerection, reduced touch response, prostration, loss of grasping strength, decrease in body temperature and death”. The “death after compound administration, time” value ([2]; 1,150 mg/kg oral) was at most 4 h, the clinical signs ([2]; 175, 550 and 850 mg/kg oral) was “did not result in any observable clinical signs indicating toxicity” and the morbidity and mortality ([2]; 175, 550 and 850 mg/kg oral) was “did not result in any signs indicative of toxicity”. The “body weight change and food consumption” value ([2]; single 175, 550 or 850 mg/kg) was “not observed any significant change”, the organs weight ([2]; single oral 175, 550 or 850 mg/kg) was “did not show any changes” and the weight recovery ([3]; MB-905 250 mg/kg/day) was “did not allow complete weight recovery”. For the same compound, the “inflammatory cells in the respiratory tract” value ([3]; day 11, MB-905 250 mg/kg/day) was “less inflammatory cells”, the mortality ([3]; oral gavage daily from day 2, MB-905 250 mg/kg/day) was “reduced the mice mortality by half” and the CC50 at 3 days [4] was 560 µM. For the same compound, the body weight [5, 13] was “sustain their masses beyond the threshold of euthanasia”, the overall clinical scores [5, 13] was “improved” and the “virus RNA levels in the lungs” value ([5]; 140 mg/kg/day with or without DTG) was “did not alter”. For the same compound, the infectious titers ([5]; 140 mg/kg/day with or without DTG, BAL) was “decreased significantly”, the “IL-6 in BAL” value [5, 14] was “reduced” and the “KC in BAL” value [5, 14] was “reduced”. For the same compound, the “TNF-α in BAL” value [5, 14] was “reduced”, the “inflammatory cells counts in BAL” value [5, 14] was “reduced” and the survival ([5]; 70 mg/kg/day oral with DTG) was “Higher survival rates”. For the same compound, the survival ([5]; 140 mg/kg/day oral, combined or not with DTG) was “Higher survival rates”, the lung necrosis ([5]; alone or combined with DTG) was “reduced” and the “SARS-CoV-2-induced enhancement of IL-6 levels in culture supernatant” value [6] was “reduced”. For the same compound, the “SARS-CoV-2-induced enhancement of TNF-α levels in culture supernatant” value [6] was “reduced”, the Cmax ([7]; 5% ethanol, 30% Propylene Glycol, 45% PEG 400, 20% water, 30 mg/kg (p.o.)) was 569.97 ng/mL and the Cmax ([7]; 5% ethanol, 30% Propylene Glycol, 45% PEG 400, 20% water, 550 mg/kg (p.o.)) was 1053.37 ng/mL. For the same compound, the Tmax ([7]; CD1, mouse, plasma, po, 3 mg/kg, 5% Carboxymethylcellulose, 3 mg/kg (v.o.)) was 15 min, the Cmax ([7]; CD1, mouse, plasma, po, 3 mg/kg, 5% Carboxymethylcellulose, 3 mg/kg (v.o.), read-out: Cmax) was 70.2 ng/mL and the Tmax ([7]; CD1, mouse, plasma, po, 3 mg/kg, 5% Tween80 + 95% PEG400, 3 mg/kg (p.o.)) was 15 min. For the same compound, the Cmax ([7]; CD1, mouse, plasma, po, 3 mg/kg, 5% Tween80 + 95% PEG400, 3 mg/kg (p.o.), read-out: Cmax) was 60.8 ng/mL, the Tmax ([7]; CD1, mouse, plasma, po, 3 mg/kg, 5% ethanol, 30% Propylene Glycol, 45% PEG 400, 20% water, 3 mg/kg (v.o.)) was 15 min and the Cmax ([7]; CD1, mouse, plasma, po, 3 mg/kg, 5% ethanol, 30% Propylene Glycol, 45% PEG 400, 20% water, 3 mg/kg (v.o.), read-out: Cmax) was 64 ng/mL. The Tmax ([7]; CD1, mouse, plasma, po, 30 mg/kg, 5% Carboxymethylcellulose, 30 mg/kg (p.o.)) was 15 min, the Cmax ([7]; CD1, mouse, plasma, po, 30 mg/kg, 5% Carboxymethylcellulose, 30 mg/kg (p.o.), read-out: Cmax) was 504 ng/mL and the Tmax ([7]; CD1, mouse, plasma, po, 30 mg/kg, 5% Tween80 + 95% PEG400, 30 mg/kg (p.o.)) was 15 min. The Cmax ([7]; CD1, mouse, plasma, po, 30 mg/kg, 5% Tween80 + 95% PEG400, 30 mg/kg (p.o.), read-out: Cmax) was 507 ng/mL, the Tmax ([7]; CD1, mouse, plasma, po, 300 mg/kg, 5% Carboxymethylcellulose, 300 mg/kg (p.o.)) was 480 min and the Cmax ([7]; CD1, mouse, plasma, po, 300 mg/kg, 5% Carboxymethylcellulose, 300 mg/kg (p.o.), read-out: Cmax) was 1020 ng/mL. It also gave a Tmax ([7]; CD1, mouse, plasma, po, 300 mg/kg, 5% Tween80 + 95% PEG400, 300 mg/kg (p.o.)) of 15 min, a Cmax ([7]; CD1, mouse, plasma, po, 300 mg/kg, 5% Tween80 + 95% PEG400, 300 mg/kg (p.o.), read-out: Cmax) of 1030 ng/mL and an AUC [7, 15] of 107 ng·h/mL. It also gave a half-life [7, 15] of 131 min, an AUC [7, 16] of 153 ng·h/mL and a half-life [7, 16] of 158 min. The AUC [7, 17] was 98.4 ng·h/mL, the half-life [7, 17] was 115 min and the AUC [7, 18] was 525 ng·h/mL. The half-life [7, 18] was 100 min, the AUC [7, 19] was 1110 ng·h/mL and the half-life [7, 19] was 136 min. For the same compound, the AUC [7, 20] was 763 ng·h/mL, the Tmax [7, 20] was 15 min and the half-life [7, 20] was 217 min. It also gave an AUC ([7]; mouse, plasma, po, 300 mg/kg, 5% Carboxymethylcellulose, 300 mg/kg (p.o.)) of 14800 ng·h/mL, an AUC ([7]; mouse, plasma, po, 300 mg/kg, 5% Tween80 + 95% PEG400, 300 mg/kg (p.o.)) of 11500 ng·h/mL and an AUC [7, 21] of 11600 ng·h/mL. For the same compound, the Tmax [7, 21] was 60 min, the half-life [7, 21] was 518 min and the “MNPCE/4,000 PCE (Mean ± S.D.)” value ([8]; 32 mg/Kg p.o.) was 8.50 ± 4.50. The “MNPCE/4,000 PCE (Mean ± S.D.)” value ([8]; 125 mg/Kg p.o.) was 8.50 ± 3.81 and the “MNPCE/4,000 PCE (Mean ± S.D.)” value ([8]; 500 mg/Kg p.o.) was 9.00 ± 2.45.
